Source: patent US20190315711A1 (eXIthera Pharmaceuticals, Inc., priority 2016, published 2019)
Values after ≈ are worked out from the molar mass of the structure shown.

How the values were obtained:
[1] = Caco-2 cell permeability assay (A-B and B-A); format: in vitro ADME; details: human; for Papp A→B at 60 min, 10 μM: A-B direction; for Papp B→A at 40 min, 10 μM: B-A direction
Experimental: The following procedure was used to determine the ability of a test compound to cross Caco-2 cells (human intestinal epithelial cells derived from a colorectal adenocarcinoma). The cells were seeded at 1×10^5 cells/cm^2 in 96-well Multiscreen™ plates (Millipore). Permeability assays were performed with the cells at days 21-25 post-seeding. Cells are typically used for 15 consecutive passages in culture.
This assay can be performed in either the apical to basolateral (A−B) or basolateral to apical (B−A) direction. The test compound was prepared at 10 μM in HBSS-MES (pH 6.5) or HBSS-HEPES (pH 7.4) with a final DMSO concentration of 1%. The working solution was then centrifuged and the supernatant added to the donor side. The assay plate was incubated at 37° C. with gentle shaking for 60 min or 40 min for the A−B or B−A assay, respectively. Samples were aliquoted from the donor side at time zero and the end point, and from the receiver side at the end point.
Reference compounds, propranolol (highly permeable), labetalol (moderately permeable), ranitidine (poorly permeable), and colchicine (P-glycoprotein substrate) were included in each assay.
Samples are analyzed by HPLC-MS/MS using selected reaction monitoring. The HPLC system consists of a binary LC pump with autosampler, a C-18 column, and a gradient.
The apparent permeability coefficient (Papp) of the test compound (Equation 2) and its recovery (Equation 3) are calculated as follows: […]
wherein A is the surface area of the cell monolayer (0.11 cm^2), C is concentration of the test compound expressed as peak area, D denotes donor, and R is receiver. “0”, “mid,” and “end” denote time at zero, mid-point, and end of the incubation, respectively. At is the incubation time. V is the volume of the donor or receiver.
This is most likely due to non-specific binding or degradation.

[2] = Aqueous solubility in PBS pH 7.4; format: physicochemical; details: phosphate buffered saline, aqueous buffer, kinetic from dmso stock, PBS pH 7.4, room temperature
Experimental: The following procedure was used to determine the aqueous solubility of a test compound in phosphate buffered saline (PBS—NaCl 137 mM, KCl 2.7 mM, Na2HPO4 8.1 mM, KH2PO4 1.5 mM, pH 7.4) in 96-well plate format by HPLC-UV/VIS analysis. The test compound was prepared at 200 μM in PBS from a 10 mM DMSO stock solution. The final DMSO concentration was 2%. The PBS buffer samples were mixed thoroughly followed by incubation at room temperature for 24 h. At the end of the incubation, the PBS buffer samples were centrifuged and supernatants analyzed by HPLC. The aqueous solubility (μM) of the test compound in PBS was determined by comparing the peak area of the principal peak in the calibration standard (200 μM) with the peak area of the corresponding peak in each of the PBS samples. The range of the assay was approximately 0.5 μM to 200 μM. The reference compounds used in each assay were metoprolol, rifampicin, ketoconazole, phenytoin, haloperidol, simvastatin, diethylstilbestrol, and tamoxifen ranking from fully soluble (200 μM) to poorly soluble (<1 μM).

[3] = target: human Factor XIa (Homo sapiens, UniProt P03951); experiment: Factor XIa enzyme inhibition assay (dose response, fluorogenic AMC substrate); format: biochemical; design: Enzyme: Factor XIa; details: purified enzyme; substrate 50 μM, enzyme 0.25 nM; read-out: hFXIa IC50
Chain of human Factor XIa (P03951 388-625 limits assumed): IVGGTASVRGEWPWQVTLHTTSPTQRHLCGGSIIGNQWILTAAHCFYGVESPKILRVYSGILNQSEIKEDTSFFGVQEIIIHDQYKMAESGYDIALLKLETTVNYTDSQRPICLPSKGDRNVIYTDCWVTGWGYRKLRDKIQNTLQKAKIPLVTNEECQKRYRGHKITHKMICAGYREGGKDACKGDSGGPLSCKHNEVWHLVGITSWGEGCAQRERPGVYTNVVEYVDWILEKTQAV
Chain of human Factor XIa (P03951 19-387 partner limits assumed): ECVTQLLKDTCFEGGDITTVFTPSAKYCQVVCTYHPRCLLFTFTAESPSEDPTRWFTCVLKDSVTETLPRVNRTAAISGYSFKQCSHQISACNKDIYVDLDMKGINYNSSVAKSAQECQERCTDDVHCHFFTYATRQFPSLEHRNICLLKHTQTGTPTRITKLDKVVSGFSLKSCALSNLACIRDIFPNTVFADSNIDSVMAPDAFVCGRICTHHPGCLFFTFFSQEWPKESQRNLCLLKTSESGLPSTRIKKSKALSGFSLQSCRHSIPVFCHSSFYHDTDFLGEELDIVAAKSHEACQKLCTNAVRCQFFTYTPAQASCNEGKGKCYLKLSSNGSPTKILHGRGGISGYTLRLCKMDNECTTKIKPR
How it was run: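 Fluorogenic assay in 20 mM Hepes pH 7.4, 150 mM NaCl, 0.02% Tween 20 with 0.25 nM enzyme and 50 μM Glp-Pro-Arg-AMC (final). Fluorescence read every minute for 30 min at 30 °C after serial two-fold compound dilution; IC50 from four-parameter Hill fit of dose-response curves.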

[4] = Plasma protein binding by equilibrium dialysis; format: in vitro ADME; details: both sexes, pooled plasma, pH 7.4, human plasma protein binding, read-out: PPB
Experimental: The following procedure was used to determine the plasma protein binding of a test compound in pooled plasma from human (mixed gender) via equilibrium dialysis in a 96-well plate format. The dialysate compartment was loaded with phosphate-buffered saline (pH 7.4) and the sample side was loaded with plasma spiked with the test compound at a concentration of 10 μM. After loading, samples were covered and incubated for 4 hours at 37° C. After incubation, each compartment was sampled, diluted with acetonitrile/buffer and centrifuged. The supernatants were analyzed by HPLC-MS/MS. The analyte peak areas obtained from HPLC-MS/MS analysis of each sample were used to calculate protein binding according to the following equation (Equation 4):
where: AREAp=Peak area of analyte in protein matrix; AREAb=Peak area of analyte in buffer. The amount measured in the plasma compartment included both free and bound drug, while that on the buffer side represented free drug only; the differences were used to calculate the percentage plasma protein bound. Three reference compounds were tested in each assay: acebutolol, quinidine and warfarin.

[5] = target: T1, Thrombin (Homo sapiens, UniProt P00734); experiment: Dose response assay for protease inhibitors: thrombin; format: biochemical; details: ratio versus Factor XIa
T1 construct: Thrombin; 0.2 μM in 50% glycerol (7.34 μg/mL)
Experimental: (§1) • Assay buffer: 20 mM Hepes, pH 7.4; 150 mM NaCl; 0.02% Tween 20 • Compounds: 10 mM stocks in DMSO • Substrate: 20 mM Glp-Pro-Arg-AMC, 25 mg/2.3 mL H2O (store at +4° C.) [Factor XIa, thrombin, and trypsin] • 20 mM Pro-Phe-Arg-AMC (Bachem I-1295), 25 mg/2.2 mL H2O or Boc-Leu-Gly-Arg-AMC (Bachem I-1105), 25 mg/2.07 mL H2O (store at +4° C.) [Factor Xa] • Enzyme: Factor XIa; 0.25 M in 50% glycerol (20 μg/mL) • Trypsin; 0.2 μM in 50% glycerol (4.8 μg/mL) • Thrombin; 0.2 μM in 50% glycerol (7.34 μg/mL) • Factor Xa; 0.2 μM in 50% glycerol (9.2 μg/mL)
(§2) • 1. Dilute the substrate to 100 μM in assay buffer (30 μL/6 mL). The enzyme is diluted to 0.5 nM just prior to use (12 L/6 mL for Factor XIa; 15 μL/6 mL for all of the rest.) • 2. Pipette 50 μL of substrate into each well of the 96 well (12×8) microtiter plate. (Column 1 is used as the 100% activity control and receives no compound, and Column 12 is the blank and receives no enzyme.) Add an additional 46 μL to column 2. • 3. Pipette 4 μL of each compound into the appropriate well in column 2 of the plate (unknowns assayed in triplicate, standard assayed in duplicate). The final compound concentration will be 1/50th of the stock. • 4. Serially two-fold dilute the compound by mixing the sample in column 2, removing 50 μL to the next well (column 3), mix and remove to column 4, etc. until column 11. After mixing column 11, remove 50 μL and discard. • 5. Pipette 50 μL of buffer into column 12. Initiate the reaction by adding 50 μL of enzyme solution to each well of columns 1-11 as rapidly as possible. • 6. Read the plate in a spectrophotometer (SpectraMax) at 30° C., wherein each well is measured every 60 s for 30 min. For Factor Xa assays, each well is measured every 1 min for a total of 60 min. • 7. For Factor XIa assays, the compounds are assayed, in duplicate, at 3 different starting concentrations, 20, 2, and 0.2 μM; 1:10, 1:100, and 1:1000 dilution of 10 mM stock or at 2, 0.2, and 0.02 μM; 1:100, 1:1000, and 1:10,000 dilution of 10 mM stock. Data for each concentration are combined for graphing and data fitting. • 8. Data can be used both for estimation of IC50 and for estimation of Kon.

[6] = target: T2, Trypsin (Bos taurus, UniProt P00760); experiment: Dose response assay for protease inhibitors: trypsin; format: biochemical; details: ratio versus Factor XIa
T2 construct: gene PRSS1
T2 sequence (P00760 24-246): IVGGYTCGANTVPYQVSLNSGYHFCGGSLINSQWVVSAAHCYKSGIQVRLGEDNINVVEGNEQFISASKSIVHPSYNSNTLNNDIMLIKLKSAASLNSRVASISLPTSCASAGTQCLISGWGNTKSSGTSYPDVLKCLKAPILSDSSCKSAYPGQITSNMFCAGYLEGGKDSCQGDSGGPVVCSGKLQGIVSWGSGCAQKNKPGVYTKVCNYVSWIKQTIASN
Experimental: as §1, §2

[7] = target: T3, Factor Xa (Homo sapiens, UniProt P00742); experiment: Dose response assay for protease inhibitors: Factor Xa; format: biochemical; details: ratio versus Factor XIa
T3 construct: Factor Xa; 0.2 μM in 50% glycerol (9.2 μg/mL)
T3 sequence (P00742 235-488 limits assumed): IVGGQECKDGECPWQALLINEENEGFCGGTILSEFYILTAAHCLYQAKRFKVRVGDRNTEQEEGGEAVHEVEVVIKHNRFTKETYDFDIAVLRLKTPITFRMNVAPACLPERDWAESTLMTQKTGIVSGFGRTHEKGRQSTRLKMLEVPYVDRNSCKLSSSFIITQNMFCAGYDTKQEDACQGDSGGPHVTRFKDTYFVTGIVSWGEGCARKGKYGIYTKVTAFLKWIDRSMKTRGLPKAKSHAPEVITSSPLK
T3 sequence (P00742 41-179 partner limits assumed): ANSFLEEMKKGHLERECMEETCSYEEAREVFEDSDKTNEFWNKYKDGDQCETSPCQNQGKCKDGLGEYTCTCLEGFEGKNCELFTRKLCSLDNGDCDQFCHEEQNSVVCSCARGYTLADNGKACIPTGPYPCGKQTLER
Experimental: as §1, §2

Row | Papp A→B at 60 min, 10 μM [1] | Papp B→A at 40 min, 10 μM [1] | solubility at 24 h [2] | IC50 [3] | fraction unbound at 4 h, 10 μM [4] | Ratio: Thrombin/FXIa [5] | Ratio: Trypsin/FXIa [6] | FXa/FXIa (selectivity ratio) [7] | Structure (SMILES)
1 | ≤ 10 ×10⁻⁶ cm/s | ≤ 10 ×10⁻⁶ cm/s | ≤ 10 µM | 10 to 100 nM | < 0.05 |  |  |  | CN(C(=O)[C@@H]1[C@@H](Cc2ccnc(N)c2)C(=O)N1C(=O)N[C@@H](C1CCCCC1)C(F)(F)F)c1cc(Cl)cc(Cl)c1 [Compound 23]
2 | 11 to 30 ×10⁻⁶ cm/s | ≤ 10 ×10⁻⁶ cm/s |  | < 10 nM |  | G (“G” indicates 1-100) | G (“G” indicates 1-100) | H (“H” indicates 101-1000) | CC[C@@H](NC(=O)N1C(=O)[C@H](Cc2ccnc(N)c2)[C@H]1C(=O)N(C)c1cccc(OC)c1)C1CCCCC1 [Compound 28]
3 | ≤ 10 ×10⁻⁶ cm/s | ≤ 10 ×10⁻⁶ cm/s |  | < 10 nM |  | G (“G” indicates 1-100) | G (“G” indicates 1-100) | H (“H” indicates 101-1000) | CC[C@@H](NC(=O)N1C(=O)[C@H](Cc2ccnc(N)c2)[C@H]1C(=O)N(CC)c1cccc(Cl)c1)C1CCCCC1 [Compound 32]
4 | 11 to 30 ×10⁻⁶ cm/s | 11 to 30 ×10⁻⁶ cm/s |  | < 10 nM |  | I (“I” indicates >500) | G (“G” indicates 1-100) | I (“I” indicates >500) | CC[C@@H](NC(=O)N1C(=O)[C@H](Cc2ccnc(N)c2)[C@H]1C(=O)N(C)c1ncccn1)C1CCCCC1 [Compound 37]
5 | ≤ 10 ×10⁻⁶ cm/s | 11 to 30 ×10⁻⁶ cm/s |  | < 10 nM |  | H (“H” indicates 101-1000) | G (“G” indicates 1-100) | I (“I” indicates >500) | CC[C@H](c1cccc(Cl)c1)N(C)C(=O)N1C(=O)[C@H](Cc2ccnc(N)c2)[C@H]1C(=O)N(C)c1ccncc1 [Compound 113]
6 | 11 to 30 ×10⁻⁶ cm/s | ≤ 10 ×10⁻⁶ cm/s |  | < 10 nM |  | H (“H” indicates 101-1000) | G (“G” indicates 1-100) | H (“H” indicates 101-1000) | CC[C@@H](NC(=O)N1C(=O)[C@H](Cc2ccnc(N)c2)[C@H]1C(=O)N(C)c1ccccc1)c1cccc(Cl)c1 [Compound 115]
7 |  |  |  | < 10 nM |  | G (“G” indicates 1-100) | G (“G” indicates 1-100) | H (“H” indicates 101-1000) | CC[C@@H](NC(=O)N1C(=O)[C@H](Cc2ccnc(N)c2)[C@H]1C(=O)N(C)c1ccnc(C)c1)c1cccc(Cl)c1 [Compound 124]
8 |  |  |  | < 10 nM |  | H (“H” indicates 101-1000) | G (“G” indicates 1-100) | I (“I” indicates >500) | CC[C@@H](NC(=O)N1C(=O)[C@H](Cc2cc(C)nc(N)c2)[C@H]1C(=O)N(C)c1ncccn1)c1cccc(Cl)c1 [Compound 135]
9 | ≤ 10 ×10⁻⁶ cm/s | ≤ 10 ×10⁻⁶ cm/s | 10 to 100 µM (≈ 5.52 to 55.2 µg/mL) |  | < 0.05 |  |  |  | CN(C(=O)[C@@H]1[C@@H](Cc2ccnc(N)c2)C(=O)N1C(=O)N[C@@H](C1CCCCC1)C(F)(F)F)c1cccc(Cl)c1 [Example 11]
